Data reported in PubChem BioAssay (NCI).
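In this assay, cells in 96-well plates receive the compound at five concentrations for 48 hours. Endpoints are linearly interpolated between the surrounding concentrations. GI50 marks 50% less growth. TGI: concentration producing complete growth inhibition.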

Tests used:
Assay in all cases: growth of human tumour cells (NCI), 48 h
786-0 renal = test system: 786-0 renal
A498 renal = test system: A498 renal
A549 NSCLC = test system: A549 NSCLC
ACHN renal = test system: ACHN renal
BT-549 breast = test system: BT-549 breast
CAKI-1 renal = test system: CAKI-1 renal
CCRF-CEM leukemia = test system: CCRF-CEM leukemia
COLO 205 colon = test system: COLO 205 colon
DU-145 prostate = test system: DU-145 prostate
EKVX NSCLC = test system: EKVX NSCLC
HCC-2998 colon = test system: HCC-2998 colon
HCT-116 colon = test system: HCT-116 colon
HCT-15 colon = test system: HCT-15 colon
HL-60(TB) leukemia = test system: HL-60(TB) leukemia
HOP-62 NSCLC = test system: HOP-62 NSCLC
HOP-92 NSCLC = test system: HOP-92 NSCLC
HS 578T breast = test system: HS 578T breast
HT29 colon = test system: HT29 colon
IGROV1 ovarian = test system: IGROV1 ovarian
K-562 leukemia = test system: K-562 leukemia
KM12 colon = test system: KM12 colon
LOX IMVI melanoma = test system: LOX IMVI melanoma
M14 melanoma = test system: M14 melanoma
MALME-3M melanoma = test system: MALME-3M melanoma
MCF7 breast = test system: MCF7 breast
MDA-MB-231 breast = test system: MDA-MB-231 breast
MDA-MB-435 = test system: MDA-MB-435
MDA-MB-468 breast = test system: MDA-MB-468 breast
MOLT-4 leukemia = test system: MOLT-4 leukemia
NCI-H226 lung = test system: NCI-H226 lung

Compound: O=C(Nc1ccc(OCc2ccc(F)cc2)cc1)Nc1ccc(Cl)c(C(F)(F)F)c1
- GI50 (786-0 renal): 3.12 µM
- TGI (786-0 renal): 11.9 µM
- GI50 (A498 renal): 2.16 µM
- TGI (A498 renal): 6.69 µM
- GI50 (A549 NSCLC): 2.83 µM
- TGI (A549 NSCLC): 12.1 µM
- GI50 (ACHN renal): 3.21 µM
- TGI (ACHN renal): 11 µM
- GI50 (BT-549 breast): 2.08 µM
- TGI (BT-549 breast): 6.1 µM
- GI50 (CAKI-1 renal): 2.56 µM
- TGI (CAKI-1 renal): 9.1 µM
- GI50 (CCRF-CEM leukemia): 3.01 µM
- TGI (CCRF-CEM leukemia): 11.3 µM
- GI50 (COLO 205 colon): 1.82 µM
- TGI (COLO 205 colon): 3.37 µM
- GI50 (DU-145 prostate): 3.96 µM
- TGI (DU-145 prostate): 14.3 µM
- GI50 (EKVX NSCLC): 2.56 µM
- TGI (EKVX NSCLC): 8.33 µM
- GI50 (HCC-2998 colon): 3.08 µM
- TGI (HCC-2998 colon): 11.2 µM
- GI50 (HCT-116 colon): 3.11 µM
- TGI (HCT-116 colon): 10.4 µM
- GI50 (HCT-15 colon): 2.75 µM
- TGI (HCT-15 colon): 11 µM
- GI50 (HL-60(TB) leukemia): 2.7 µM
- TGI (HL-60(TB) leukemia): 7.29 µM
- GI50 (HOP-62 NSCLC): 3.03 µM
- TGI (HOP-62 NSCLC): 11.4 µM
- GI50 (HOP-92 NSCLC): 1.88 µM
- TGI (HOP-92 NSCLC): 5.78 µM
- GI50 (HS 578T breast): 2.88 µM
- TGI (HS 578T breast): 8.28 µM
- GI50 (HT29 colon): 3.33 µM
- TGI (HT29 colon): 14.5 µM
- GI50 (IGROV1 ovarian): 4.45 µM
- TGI (IGROV1 ovarian): 16.2 µM
- GI50 (K-562 leukemia): 3.02 µM
- TGI (K-562 leukemia): > 100 µM
- GI50 (KM12 colon): 2.86 µM
- TGI (KM12 colon): 8.39 µM
- GI50 (LOX IMVI melanoma): 2.79 µM
- TGI (LOX IMVI melanoma): 9.64 µM
- GI50 (M14 melanoma): 2.79 µM
- TGI (M14 melanoma): 10.4 µM
- GI50 (MALME-3M melanoma): 2.07 µM
- TGI (MALME-3M melanoma): 5.78 µM
- GI50 (MCF7 breast): 2.25 µM
- TGI (MCF7 breast): 8.25 µM
- GI50 (MDA-MB-231 breast): 2.46 µM
- TGI (MDA-MB-231 breast): 5.84 µM
- GI50 (MDA-MB-435): 2.15 µM
- TGI (MDA-MB-435): 4.9 µM
- GI50 (MDA-MB-468 breast): 1.85 µM
- TGI (MDA-MB-468 breast): 4.71 µM
- GI50 (MOLT-4 leukemia): 2.74 µM
- TGI (MOLT-4 leukemia): 13.8 µM
- GI50 (NCI-H226 lung): 2.46 µM
